Measured values taken from patent US6855801B1, “Peptides modulating activities of heparin other glycosaminoglycans or proteoglycans” (Thomas Jefferson University, priority 1999, dated 2005).

Experiments:
[1] = Affinity coelectrophoresis (ACE) of radiolabeled heparin through peptides; format: binding, pig
Source text: Preparation of Radiolabeled Heparin—Whole heparin from pig intestinal mucosa (Sigma) was tyramine end-labeled and radiolabeled with Na^125I (Amersham, Pharmacia Biotech, Inc., Piscataway, N.J.) to an average specific activity ≅1.0×10^7 CPM/μg as described^59. Radiolabeled heparin was fractionated on Sephadex G-100 (Bio-Rad Laboratories, Hercules, Calif.) and the final ≅12% of material to elute was retained as the low Mr material of ≦6,000 (Jordan, R., D. Beeler, and R. Rosenberg, J Biol Chem, 254:2902-2913, 1979; Laurent, T. C., et al., Biochem J, 175:691-701, 1978).
Briefly, peptides were dissolved in 1×ACE running buffer, 50 mM sodium 3-(N-morpholino)-2-hydroxypropanesulfonate (MOPSO, Sigma)/125 mM sodium acetate, pH 7.0, and serially diluted in running buffer at 2× concentrations. Peptides were then mixed 1:1 with 2% agarose/1% CHAPS, 3-[(3-cholamidopropyl)dimethylammonio]-1-propanesulfonate, (Boehringer Mannheim, Indianapolis, Ind.), and loaded into wells of a 1% agarose gel. Radiolabeled heparin or HUVEC PGs were then loaded in a slot on the […] side of the gel, and electrophoresed through the peptide-containing wells, towards the cathode. Gels were dried and PG mobility was measured with a Phosphorimager (Molecular Dynamics, Sunnyvale, Calif.) by scanning each protein lane and determining the relative radioactivity content per. 88-μm pixel through the length of the lane. Retardation coefficient (R) measurements, binding isotherm curve fittings, and apparent Kd value determinations were calculated as detailed previously (Lee, M. K., and A. D. Lander, Proc Nat Acad Sci USA, 88:2768-2772, 1991; San Antonio, J. D., et al, Biochem, 32:47464755, 1993).
Some peptides were also analyzed by ACE for heparin-binding under reducing conditions. Thus, after serial peptide dilution, β-mercaptoethanol (β-ME) was added at 5% to each peptide sample, and these were mixed 1:1 with 2% agarose/1% CHAPS/5% β-ME, and added to the ACE gel sample wells as usual.

Lovenox = test: Reversal of anti-Factor Xa activity in vitro (Stachrom Heparin chromogenic assay), Lovenox; format: biochemical, human; settings: 0.5 U/ml anti-Factor Xa activity
Procedure: (§1) Solutions of Lovenox, Orgaran, or unfractionated heparin (Sigma) were prepared in 0.32% sodium citrate or in normal human plasma to contain 0.5 U/ml anti-FXa activity. Calibrations were made against the standards provided by the Stachrom Heparin (Diagnostica Stago) assay kit. The heparin/ATIII complex was allowed to form at 37° C. for 2 minutes, peptide was added, the mixture was incubated for an additional 1-5 minutes, and then Factor Xa was added, and finally the color reagent, for one minute, and the absorbance was read at 405 nm. The increase in absorbance from the heparinized control to the test sample was divided by the difference in A405 between the heparinized control and the control without heparin to obtain the % reversal.

unfractionated heparin [2] = test: Reversal of anti-Factor Xa activity in vitro (Stachrom Heparin chromogenic assay), unfractionated heparin; format: biochemical, human; settings: 0.5 U/ml anti-Factor Xa activity
Procedure: as §1

unfractionated heparin [3] = test: Reversal of anti-thrombin effects of unfractionated heparin in vitro (thrombin clotting time in plasma); format: biochemical, human; settings: heparin 0.5 U/ml; thrombin standardized to clotting time 20-22 seconds
Procedure: Plasma was obtained from normal donors. Thrombin concentration (human alpha thrombin, Enzyme Research Laboratories, South Bend, Ind.) was standardized to produce a clotting time of 20-22 seconds. Heparin was added at 0.5 IU anti-thrombin activity/ml. The clotting time for heparin alone was approximately 3 minutes. To test the effects of the peptides in this system, one minute after addition of heparin to the plasma, the peptides were added in concentrations ranging from 1-200 μg/ml. After one minute, thrombin was added and the clotting time determined. The effects of the peptides were concentration dependent. The clotting time was restored to normal values in all samples at the dosages shown below in Table III. The ability of the peptides to neutralize heparin inhibition of thrombin clotting time was consistent with the binding affinities shown in Table I, and with the effectiveness against low molecular weight heparin anti-Factor Xa activity in Table II.

Orgaran = test: Reversal of anti-Factor Xa activity in vitro (Stachrom Heparin chromogenic assay), Orgaran; format: biochemical, human; settings: 0.5 U/ml anti-Factor Xa activity
Procedure: as §1

Sequence: AKKARAAKKARAAKKARAAKKARAAKKARAAKKARA [(AKKARA)6, XBBXBX tandem repeat peptide]
- heparin-binding affinity in words ([1]; ACE, low Mr heparin): strong
- Percent Reversal of anti-Factor Xa Activity, Lovenox (Lovenox; peptide 0.12 mg/ml in plasma): 86%
- Percent Reversal of anti-Factor Xa Activity, Lovenox (Lovenox; peptide 0.4 mg/ml in plasma): 86.5%
- Percent Reversal of anti-Factor Xa Activity, Lovenox (Lovenox; peptide 0.6 mg/ml in plasma): 82.5%
- Percent Reversal of anti-Factor Xa Activity, Heparin (unfractionated) (unfractionated heparin [2]; peptide 0.12 mg/ml in plasma): 99%
- Percent Reversal of anti-Factor Xa Activity, Heparin (unfractionated) (unfractionated heparin [2]; peptide 0.4 mg/ml in plasma): 97.5%
- Percent Reversal of anti-Factor Xa Activity, Heparin (unfractionated) (unfractionated heparin [2]; peptide 0.6 mg/ml in plasma): 93%
- μg peptide/ml heparinized plasma needed to normalize thrombin time (unfractionated heparin [3]): 5 μg peptide/ml heparinized plasma
- Percent Reversal of anti-Factor Xa Activity, Orgaran (Orgaran; peptide 0.12 mg/ml in plasma): 74.5%
- Percent Reversal of anti-Factor Xa Activity, Orgaran (Orgaran; peptide 0.4 mg/ml in plasma): 81.5%
- Percent Reversal of anti-Factor Xa Activity, Orgaran (Orgaran; peptide 0.6 mg/ml in plasma): 77%

Sequence: YPARRARYQWVRCKP
- heparin-binding under reducing conditions in words ([1]; ACE with β-ME): negligible heparin-binding
- Percent Reversal of anti-Factor Xa Activity, Lovenox (Lovenox; peptide 0.6 mg/ml in plasma): 25.0%
- Percent Reversal of anti-Factor Xa Activity, Heparin (unfractionated) (unfractionated heparin [2]; peptide 0.6 mg/ml in plasma): 77.0%
- μg peptide/ml heparinized plasma needed to normalize thrombin time (unfractionated heparin [3]): 15 μg peptide/ml heparinized plasma
- Percent Reversal of anti-Factor Xa Activity, Orgaran (Orgaran; peptide 0.6 mg/ml in plasma): 16.5%
